Assay results as given in EP2951180B1, “2,6,7,8 SUBSTITUTED PURINES AS HDM2 INHIBITORS” (Merck Sharp & Dohme Corp., priority 2013, dated 2014).
Like-named read-outs stand apart in the source and are kept apart here.

Target: T1, HDM2 (Homo sapiens, UniProt Q00987)
T1 construct: Thioredoxin (N); made in house; host or cells: E. coli strain BL21(DE3)Rosetta
Experiment: HDM2 FRET assay (inhibition of binding of FITC labeled p53-pocket peptide to HDM2)
Settings: read-out: FRET IC50
Procedure, shortened: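 TR-FRET with 0.5 nM His-tagged recombinant HDM2, 3 nM FITC-labelled p53 peptide and 0.25 nM Tb-anti-His antibody in PBS, 0.01% BSA, 0.01% Tween-20, 0.1% DMSO. IC50 from em520/em495 ratio over 10-point dilutions, 4-parameter logistic fit.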

[1] = 0.5 nM HDM2 (residues 17 to 125), 3nM peptide, two hour incubation at room temperature

T1 sequence (Q00987 17-125): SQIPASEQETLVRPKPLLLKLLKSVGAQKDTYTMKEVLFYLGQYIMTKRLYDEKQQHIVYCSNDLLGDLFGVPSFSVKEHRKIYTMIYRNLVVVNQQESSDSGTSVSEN

For `CC([C@H]1CC[C@H](C)CC1)n1c(N2CCC[C@H]2C(F)(F)F)nc2nc(-c3noc(=O)[nH]3)nc(-c3cncc(Cl)c3)c21` (stereo partly drawn) [Example 18.49, 3-{6-(5-chloropyridin-3-yl)-7-[1-(trans-4-methylcyclohexyl)ethyl]-8-[(2S)-2-(trifluoromethyl)pyrrolidin-1-yl]-7H-purin-2-yl}-1,2,4-oxadiazol-5(4H)-one], which IC50 (Table 18) is on record?
The IC50 was 0.67 nM.

How did the IC50 (Table 6) turn out when `CCCCN(CC)c1nc(C(=O)O)nc2nc(-c3cccc(C)c3)n(Cc3ccc(C(F)(F)F)cc3)c12` [Example 6.69, 6-[butyl(ethyl)amino]-8-(3-methylphenyl)-7-[4-(trifluoromethyl)benzyl]-7H-purine-2-carboxylic acid] was run?
The IC50 was 621 nM.

How did the IC50 (Table 11) turn out when `C[C@@H](Nc1nc(-c2noc(=O)[nH]2)nc2nc(N3CCCC3C(C)(C)C)n(C[C@H]3CC[C@H](C)CC3)c12)C1CCC1` (stereo partly drawn) [Example 11.36, 3-{8-(2-tert-butylpyrrolidin-1-yl)-6-{[(1R)-1-cyclobutylethyl]amino}-7-[(trans-4-methylcyclohexyl)methyl]-7H-purin-2-yl}-1,2,4-oxadiazol-5(2H)-one] was run?
Its IC50 is 3.93 nM.

For `C[C@@H]1CN(S(C)(=O)=O)CCN1c1nc2nc(-c3noc(=O)[nH]3)nc(N[C@H](C)C3CCC3)c2n1C[C@H]1CC[C@H](C)CC1` [Example 17.14, 3-(6-{[(1R)-1-cyclobutylethyl]amino}-7-[(trans-4-methylcyclohexyl)methyl]-8-[(2R)-2-methyl-4-(methylsulfonyl)piperazin-1-yl]-7H-purin-2-yl)-1,2,4-oxadiazol-5(4H)-one], which IC50 (Table 17.2) is on record?
Its IC50 is 4.93 nM.

How did the IC50 (Table 10) turn out when `C[C@@H](Nc1nc(C(=O)O)nc2nc(C(=O)N3CCCC(C)(C)C3)n(Cc3ccc(C(F)(F)F)cc3)c12)C1CCC1` [Example 10.21, (R)-6-((1-Cyclobutylethyl)amino)-8-(3,3-dimethylpiperidine-1-carbonyl)-7-(4-(trifluoromethyl)benzyl)-7H-purine-2-carboxylic acid] was run?
Its IC50 is 22.3 nM.

Which IC50 (Table 9) does the source give for `CCCN(c1nc2nc(C(=O)O)nc(N[C@H](C)C3CCC3)c2n1Cc1ccc(C(F)(F)F)cc1)[C@@H](C)c1ccccc1` [Example 9.49, 6-{[(1R)-1-cyclobutylethyl]amino}-8-{[(1S)-1-phenylethyl] (propyl)amino}-7-[4-(trifluoromethyl)benzyl]-7H-purine-2-carboxylic acid] here?
Its IC50 is 22.8 nM.

How did the IC50 [1] turn out when `Cc1cccc(-c2nc(C(=O)O)nc3nc(-c4cc(C(C)C)ccn4)n(C[C@H]4CC[C@H](C)CC4)c23)c1` [Example 16.14, 7-[(trans-4-methylcyclohexyl)methyl]-8-[4-(1-methylethyl)pyridin-2-yl]-6-(3-methylphenyl)-7H-purine-2-carboxylic acid] was run?
The IC50 was 35.5 nM.

For `C[C@H]1CC[C@H](Cn2c(N3CCOC[C@H]3c3ccncc3)nc3nc(-c4noc(=O)[nH]4)nc(-c4cccc(Cl)c4)c32)CC1` [Example 16.96, 3-{6-(3-chlorophenyl)-7-[(trans-4-methylcyclohexyl)methyl]-8-[(3R)-3-pyridin-4-ylmorpholin-4-yl]-7H-purin-2-yl}-1,2,4-oxadiazol-5(4H)-one], which IC50 [1] is on record?
The IC50 was 3.29 nM.

With `COc1ncc(Cl)cc1-c1nc(-c2noc(=O)[nH]2)nc2nc(C3(c4ccccc4)CCC3)n(C[C@H]3CC[C@H](C)CC3)c12` [Example 20.14, 3-[6-(5-chloro-2-methoxypyridin-3-yl)-7-[(trans-4-methylcyclohexyl)methyl]-8-(1-phenylcyclobutyl)-7H-purin-2-yl]-1,2,4-oxadiazol-5(4H)-one] as the molecule, how does the IC50 (Table 20) read?
The IC50 was 6.11 nM.

With `C[C@@H](Nc1nc(-c2noc(=O)[nH]2)nc2nc(NC(CO)c3ccccc3)n(C[C@H]3CC[C@H](C)CC3)c12)C1CCC1` (single isomer, unassigned) [Example 11.122] as the molecule, how does the IC50 (Table 11) read?
Its IC50 is 4.17 nM.

For `C[C@@H]1CN(C(=O)C2CC2)[C@@H](C)CN1c1nc2nc(-c3noc(=O)[nH]3)nc(N[C@H](C)C3CCC3)c2n1C[C@H]1CC[C@H](C)CC1` [Example 17.23, 3-(6-{[(1R)-1-cyclobutylethyl]amino}-8-[(2R,5S)-4-(cyclopropylcarbonyl) -2,5-dimethylpiperazin-1-yl]-7-[(trans-4-methylcyclohexyl)methyl]-7H-purin-2-yl)-1,2,4-oxadiazol-5(4H)-one], which IC50 (Table 17.2) is on record?
Its IC50 is 4.88 nM.

How did the IC50 [1] turn out when `Cc1csc([C@@H]2COCCN2c2nc3nc(-c4noc(=O)[nH]4)nc(-c4cccc(Cl)c4)c3n2C[C@H]2CC[C@H](C)CC2)n1` [Example 16.120, 3-{6-(3-chlorophenyl)-7-[(trans-4-methylcyclohexyl)methyl]-8-[(3S)-3-(4-methyl-1,3-thiazol-2-yl)morpholin-4-yl]-7H-purin-2-yl}-1,2,4-oxadiazol-5(4H)-one] was run?
Its IC50 is 9.14 nM.

`CC(C)c1ccnc(-c2nc3nc(-c4noc(=O)[nH]4)nc(N[C@H](C)C4CCC4)c3n2C[C@H]2CC[C@H](C(F)(F)F)CC2)c1` [Example 18.30, 3-(6-{[(1R)-1-cyclobutylethyl]amino}-8-[4-(1-methylethyl)pyridin-2-yl]-7-{[trans-4-(trifluoromethyl)cyclohexyl]methyl}-7H-purin-2-yl)-1,2,4-oxadiazol-5(4H)-one] was tested. Which IC50 (Table 18) did it give?
The IC50 was 13 nM.

`Cc1cccc(-c2nc3nc(C(=O)O)nc(NC(C)C4CC4C)c3n2Cc2ccc(C(F)(F)F)cc2)c1` (centres unmarked) [Example 6.37, 6-{[1-(2-methylcyclopropyl)ethyl]amino}-8-(3-methylphenyl)-7-[4-(trifluoromethyl)benzyl]-7H-purine-2-carboxylic acid] was tested. Which IC50 (Table 6) did it give?
The IC50 was 360 nM.

How did the IC50 (Table 6) turn out when `Cc1cccc(-c2nc3nc(C(=O)O)nc(NC4CCC(C)CC4C)c3n2Cc2ccc(C(F)(F)F)cc2)c1` (centres unmarked) [Example 6.34, 6-[(2,4-dimethylcyclohexyl)amino]-8-(3-methylphenyl)-7-[4-(trifluoromethyl)benzyl]-7H-purine-2-carboxylic acid] was run?
Its IC50 is 1140 nM.

How did the IC50 [1] turn out when `C[C@H]1CC[C@H](Cn2c(N3CCOC[C@H]3c3ccccn3)nc3nc(-c4noc(=O)[nH]4)nc(-c4cccc(Cl)c4)c32)CC1` [Example 16.98, 3-{6-(3-chlorophenyl)-7-[(trans-4-methylcyclohexyl)methyl]-8-[(3R)-3-pyridin-2-ylmorpholin-4-yl]-7H-purin-2-yl}-1,2,4-oxadiazol-5(4H)-one] was run?
Its IC50 is 1.61 nM.

How did the IC50 [1] turn out when `C[C@H]1CC[C@H](Cn2c(N3CCOC[C@H]3c3ccccc3)nc3nc(-c4noc(=O)[nH]4)nc(-c4cc(Cl)cc(N5CCCC5)c4)c32)CC1` [Example 16.113, 3-{6-(3-chloro-5-pyrrolidin-1-ylphenyl)-7-[(trans-4-methylcyclohexyl)methyl]-8-[(3R)-3-phenylmorpholin-4-yl]-7H-purin-2-yl}-1,2,4-oxadiazol-5(4H)-one] was run?
Its IC50 is 14.9 nM.

How did the IC50 (Table 9) turn out when `CC(C)CN1CCC(CN(C)c2nc3nc(-c4noc(=O)[nH]4)nc(N[C@H](C)C4CCC4)c3n2Cc2ccc(C(F)(F)F)cc2)C1` (stereo partly drawn) [Example 9.108, 3-(6-{[(1R)-1-cyclobutylethyl]amino}-8-(methyl{[1-(2-methylpropyl)pyrrolidin-3-yl]methyl}amino)-7-[4-(trifluoromethyl)benzyl]-7H-purin-2-yl)-1,2,4-oxadiazol-5(4H)-one] was run?
The IC50 was 144 nM.

`Cc1cccc(-c2nc3nc(C(=O)O)nc(NC4CCCC4)c3n2Cc2ccc(C(F)(F)F)cc2)c1` [Example 6.22, 6-(cyclopentylamino)-8-(3-methylphenyl)-7-[4-(trifluoromethyl)benzyl]-7H-purine-2-carboxylic acid] was tested. Which IC50 (Table 6) did it give?
The IC50 was 649 nM.

Which IC50 (Table 18) does the source give for `CC[C@H]1CC[C@H](Cn2c(-c3cc(C(C)C)ccn3)nc3nc(-c4noc(=O)[nH]4)nc(N[C@H](C)C4CCC4)c32)CC1` [Example 18.20, 3-(6-{[(1R)-1-cyclobutylethyl]amino}-7-[(trans-4-ethylcyclohexyl)methyl]-8-[4-(1-methylethyl)pyridin-2-yl]-7H-purin-2-yl)-1,2,4-oxadiazol-5(4H)-one] here?
Its IC50 is 15.7 nM.

Which IC50 (Table 9) does the source give for `CC1CCCN(c2nc3nc(C(=O)O)nc(N[C@H](C)C4CCC4)c3n2Cc2ccc(C(F)(F)F)cc2)C1` (stereo partly drawn) [Example 9.40, 6-{[(1R)-1-cyclobutylethyl]amino}-8-(3-methylpiperidin-1-yl)-7-[4-(trifluoromethyl)benzyl]-7H-purine-2-carboxylic acid] here?
Its IC50 is 12.2 nM.

For `C[C@@H](Nc1nc(C(=O)O)nc2nc(C3CCCCC3c3ccccc3)n(Cc3ccc(C(F)(F)F)cc3)c12)C1CCC1` (stereo partly drawn) [Example 21.12, 6-{[(1R)-1-cyclobutylethyl]amino}-8-(2-phenylcyclohexyl)-7-[4-(trifluoromethyl)benzyl]-7H-purine-2-carboxylic acid], which IC50 (Table 21) is on record?
The IC50 was 4.57 nM.

`C[C@@H](Nc1nc(C(=O)O)nc2nc(N3CCOC(C)(C)C3)n(Cc3ccc(C(F)(F)F)cc3)c12)C1CCC1` [Example 9.18, 6-{[(1R)-1-cyclobutylethyl]amino}-8-(2,2-dimethylmorpholin-4-yl)-7-[4-(trifluoromethyl)benzyl]-7H-purine-2-carboxylic acid] was tested. Which IC50 (Table 9) did it give?
The IC50 was 32.7 nM.

How did the IC50 (Table 10) turn out when `C[C@@H](Nc1nc(C(=O)O)nc2nc(COCc3ccccc3)n(Cc3ccc(C(F)(F)F)cc3)c12)C1CCC1` [Example 10.2, (R)-8-((benzyloxy)methyl)-6-((1-cyclobutylethyl)amino)-7-(4-(trifluoromethyl)benzyl)-7H-purine-2-carboxylic acid] was run?
The IC50 was 21.6 nM.

How did the IC50 [1] turn out when `CC[C@@H]1COCCN1c1nc2nc(-c3n[nH]c(=O)o3)nc(-c3cccc(Cl)c3)c2n1C[C@H]1CC[C@H](C)CC1` [Example 16.58, 5-{6-(3-chlorophenyl)-8-[(3R)-3-ethylmorpholin-4-yl]-7-[(trans-4-methylcyclohexyl)methyl]-7H-purin-2-yl}-1,3,4-oxadiazol-2(3H)-one] was run?
The IC50 was 21.4 nM.

Which IC50 (Table 18) does the source give for `CCC1=CCC(Cn2c(-c3cc(C(C)C)ccn3)nc3nc(-c4noc(=O)[nH]4)nc(N[C@H](C)C4CCC4)c32)CC1` (stereo partly drawn) [Example 18.25, 3-(6-{[(1R)-1-cyclobutylethyl]amino}-7-[(4-ethylcyclohex-3-en-1-yl)methyl]-8-[4-(1-methylethyl)pyridin-2-yl]-7H-purin-2-yl)-1,2,4-oxadiazol-5(4H)-one] here?
The IC50 was 44 nM.
